{
  "source": "paper PMC10790361",
  "about": "“Membrane Partitioning of TEMPO Discriminates Human Lung Cancer from Neighboring Normal Cells” (Acta Naturae, 2023)",
  "key": {"[1]": {"parameters": "method as in PMID 38234602", "settings": "cited from earlier work"}, "[2]": {"tested_on": "membranes of human lung normal (healthy) cells", "assay": "EPR study of TEMPO partitioning into membranes of healthy (normal) human lung cells", "format": "physicochemical", "settings": "for DGK (free energy change to transfer TEMPO from aqueous to lipid phase of the membrane) / DGt (∆Gτ, activation energy of rotational motions of TEMPO in the membrane) / 2Aiso aqueous / 2Aiso membrane: healthy cells; for DGK (free energy change to transfer TEMPO from aqueous to lipid phase of the membrane) / DGt (∆Gτ, activation energy of rotational motions of TEMPO in the membrane): 283–317 K; for 2Aiso aqueous: TEMPO in aqueous phase; for 2Aiso membrane: TEMPO in membrane", "experimental": "(§1) The fresh lung tissue (about 2-3 h after the surgery) was washed thoroughly with PBS buffer to remove blood. Afterward, the tissue was cut into small pieces and then homogenized in PBS buffer using a glass homogenizer. The homogenized lung tissue was washed three times with PBS solution and then centrifuged (Eppendorf 5418) to remove the cell debris. Obtained cell suspension was used for the experiments. The intactness of the cells was assessed by Zeta-potential measurements as shown previously.\n(§2) EPR measurements were performed using a Bruker ELEXSYS E580 spectrometer at X-band frequency with variable temperature accessory. The aqueous suspension of lung carcinoma and neighboring normal cells with TEMPO were placed into Pyrex capillary tubes with an I.D. of 0.6 mm. EPR spectra were recorded with the following instrument parameters: scan width: 100 Gauss; sweep time: 40 s; modulation amplitude: 1 Gauss; modulation frequency: 100 kHz; microwave power: 0.47 mW; and time constant: 0.1 s. Before the measurements, the samples were kept for 5 minutes at each temperature to ensure that the sample temperature matched the set temperatures.\n(§3) The difference in the nitrogen splitting constant of TEMPO in hydrophobic (cell membrane) and hydrophilic (aqueous) environments is the reason for the split of the third component. Consequently, the EPR spectra of TEMPO incubated with cells in an aqueous environment reflect the partitioning of TEMPO in the lipid fraction of the cell membrane and aqueous environments. To resolve the spectral components, the EPR spectra of TEMPO were analyzed using the LabVIEW program developed by Christian Altenbach (https://sites.google.com/site/altenbach/), using the spectral simulation code written in FORTRAN [34]. Along with computer simulations, rotational correlation times of TEMPO were also calculated using the following formula that uses the peak heights and line widths of the first derivative EPR spectra:\n(§4) where W0 is the width (in Gauss) of the central component, while h0 and h-1 are the heights of the central and high-magnetic field components of the first derivative EPR spectrum. As mentioned above, the EPR spectra resulting from the partitioning of TEMPO in the system are composite and consist of two components. Therefore, the formula above was applied after the decomposition of the EPR spectra into lipophilic and hydrophilic components. Because of the close similarity of the correlation times obtained from the software and the formula, data are shown only as deduced from the software.\n(§5) Double integrals of the EPR spectral components (Imbrand Iaqrepresent TEMPO confined in the membrane and aqueous environments, respectively) were employed to calculate partition coefficients with the following formula: K = Imbr/(Imbr+ Iaq). To characterize the EPR spectral components, the membrane and aqueous environments were described as lipophylic and hydrophilic, respectively. Apparently, a partition coefficient depends on both the concentration of the lipid fractions and the number of lung cells in the aqueous system. For an accurate comparison of the data related to the partition coefficients, the same amount (by weight) of cancer and normal cell suspensions were used. Both cancer and normal cell suspensions were incubated with TEMPO (150 mM total concentration) for about 30 min. The experimental conditions used in this study allow us to compare the partition coefficients of the normal and cancer cells directly.\n(§6) The temperature dependence of the equilibrium constant K (partition coefficient in our case) was used to calculate the free energy changes required to transfer TEMPO molecules from the aqueous to the lipid phase of the membranes of the healthy and cancer cells.\n(§7) Similarly, the temperature dependence of the rotational correlation times of TEMPO was used to determine the activation energies for rotational motions in the membranes of the healthy and cancer cells."}, "[3]": {"settings": "read-out: IC50 (cytotoxicity); cited from earlier work"}, "[4]": {"tested_on": "membranes of human lung carcinoma (cancer) cells", "assay": "EPR study of TEMPO partitioning into membranes of human lung carcinoma cells", "format": "physicochemical", "settings": "for 2Aiso aqueous: TEMPO in aqueous phase", "experimental": "as §1, §2, §3, §4, §5, §6, §7"}, "[5]": {"settings": "from cited IC50 values"}, "[6]": {"tested_on": "various cell lines related to breast, colon, liver, and ovary cancer", "parameters": "method as in PMID 9607601", "settings": "range over cell lines related to breast, read-out: IC50 as an antiproliferative agent; cited from earlier work"}, "HCT116 cell lines": {"tested_on": "HCT116 cell lines", "parameters": "method as in PMID 9607601", "settings": "cited from earlier work"}, "[7]": {"settings": "cancer cells, pH 6.2, 283–317 K"}, "[8]": {"settings": "cancer cells, pH 7.3, 283–317 K"}},
  "data": [
    {"smiles": "CC1(C)CCCC(C)(C)N1[O]", "note": "[TEMPO, 2,2,6,6-tetramethylpiperidine-1-oxyl]", "values": [
      {"measurement": "partitioning into liposomes of cancer cell lipids compared to liposomes of normal cell lipids", "setting": "[1]", "result": "significantly enhanced partitioning"},
      {"measurement": "increase of free energy change of TEMPO transfer", "setting": "[2]; healthy cell membranes, acidic transition from pH 7.3 to pH 6.2", "result": "about 19%"},
      {"measurement": "rotational correlation time of TEMPO in membrane", "setting": "[2]; healthy cell membranes, room temperature, pH 7.3", "result": "~617", "unit": "ps"},
      {"measurement": "DGK (free energy change to transfer TEMPO from aqueous to lipid phase of the membrane)", "setting": "[2]; pH 6.2", "result": "3.7 ± 0.3", "unit": "kcal/mol"},
      {"measurement": "DGt (∆Gτ, activation energy of rotational motions of TEMPO in the membrane)", "setting": "[2]; pH 6.2", "result": "3.8 ± 0.3", "unit": "kcal/mol"},
      {"measurement": "2Aiso aqueous", "setting": "[2]; pH 6.2", "result": 34.4, "unit": "Gauss"},
      {"measurement": "2Aiso membrane", "setting": "[2]; pH 6.2", "result": 31.9, "unit": "Gauss"},
      {"measurement": "DGK (free energy change to transfer TEMPO from aqueous to lipid phase of the membrane)", "setting": "[2]; pH 7.3", "result": "3.1 ± 0.1", "unit": "kcal/mol"},
      {"measurement": "DGt (∆Gτ, activation energy of rotational motions of TEMPO in the membrane)", "setting": "[2]; pH 7.3", "result": "1.9 ± 0.2", "unit": "kcal/mol"},
      {"measurement": "2Aiso aqueous", "setting": "[2]; pH 7.3", "result": 34.5, "unit": "Gauss"},
      {"measurement": "2Aiso membrane", "setting": "[2]; pH 7.3", "result": 32.4, "unit": "Gauss"},
      {"measurement": "2Aiso values of TEMPO incorporated into the membranes of the cells (interval)", "setting": "[2]; membranes of healthy and cancer cells, pH 6.2 and 7.3", "result": "31.4−32.4 Gauss"},
      {"measurement": "IC50", "setting": "[3]", "result": 2700, "unit": "µM"},
      {"measurement": "increase of free energy change of TEMPO transfer", "setting": "[4]; cancer cell membranes, acidic transition from pH 7.3 to pH 6.2", "result": "~42", "unit": "%"},
      {"measurement": "rotational correlation time of TEMPO in membrane", "setting": "[4]; cancer cell membranes, room temperature, pH 7.3", "result": "about 490 ps"},
      {"measurement": "less energy required for TEMPO partitioning", "setting": "[4]; cancer cells at pH 7.3, free energy values compared for pH 6.2 and 7.3", "result": 30, "unit": "%"},
      {"measurement": "DGK (free energy change to transfer TEMPO from aqueous to lipid phase of the membrane)", "setting": "[4]; [7]", "result": "1.7 ± 0.1", "unit": "kcal/mol"},
      {"measurement": "DGt (∆Gτ, activation energy of rotational motions of TEMPO in the membrane)", "setting": "[4]; [7]", "result": "2.6 ± 0.3", "unit": "kcal/mol"},
      {"measurement": "2Aiso aqueous", "setting": "[4]; cancer cells, pH 6.2", "result": 34.5, "unit": "Gauss"},
      {"measurement": "DGK (free energy change to transfer TEMPO from aqueous to lipid phase of the membrane)", "setting": "[4]; [8]", "result": "1.2 ± 0.1", "unit": "kcal/mol"},
      {"measurement": "DGt (∆Gτ, activation energy of rotational motions of TEMPO in the membrane)", "setting": "[4]; [8]", "result": "2.1 ± 0.2", "unit": "kcal/mol"},
      {"measurement": "2Aiso aqueous", "setting": "[4]; cancer cells, pH 7.3", "result": 34.5, "unit": "Gauss"},
      {"measurement": "2Aiso membrane", "setting": "[4]; cancer cells, pH 7.3, TEMPO in membrane", "result": 31.5, "unit": "Gauss"},
      {"measurement": "TEMPO partition coefficient, cancer cells compared with healthy cells", "setting": "[4]; cancer vs neighboring normal cells, 283–317 K, pH 7.3 and 6.2", "result": "significantly higher"},
      {"measurement": "IC50 of TEMPO relative to TEMPOL (fold lower)", "setting": "[5]", "result": "about 4 fold"}
    ]},
    {"smiles": "CC1(C)CC(OC(=O)c2ccccc2)CC(C)(C)N1[O]", "note": "[TEMPO-benzoate]", "values": [
      {"measurement": "partitioning in liposome studies", "setting": "[1]", "result": "significantly enhanced partitioning"}
    ]},
    {"smiles": "CC1(C)CC(O)CC(C)(C)N1[O]", "note": "[TEMPOL, 4-hydroxy-TEMPO]", "values": [
      {"measurement": "IC50", "setting": "[3]", "result": 11400, "unit": "µM"},
      {"measurement": "IC50", "setting": "[6]", "result": "210 to 1070", "unit": "µM"}
    ]},
    {"smiles": "COc1cccc2c1C(=O)c1c(O)c3c(c(O)c1C2=O)C[C@@](O)(C(=O)CO)C[C@@H]3O[C@H]1C[C@H](N)[C@H](O)[C@H](C)O1", "note": "[doxorubicin]", "values": [
      {"measurement": "fold decrease of doxorubicin IC50 by TEMPOL pretreatment", "setting": "HCT116 cell lines", "result": "~7", "unit": "fold"}
    ]}
  ]
}
